Assay results as given in ChEMBL document CHEMBL1811905, “Ligand-based discovery of novel trypanosomicidal drug-like compounds: in silico identification and experimental support” (Eur J Med Chem, 2011).

Tests used:
Trypanosoma cruzi [1] = assay: Antitrypanosomal activity against epimastigote forms of Trypanosoma cruzi CL-B5 transfected with Escherichia coli LacZ gene at 100 ug/ml after 72 hrs by chlorophenol red-Beta-D-galactopyranoside-based assay; assay type: functional
Trypanosoma cruzi [2] = assay: Antitrypanosomal activity against epimastigote forms of Trypanosoma cruzi CL-B5 transfected with Escherichia coli beta-galactosidase gene LacZ at 10 ug/ml after 72 hrs by chlorophenol red-Beta-D-galactopyranoside-based assay; assay type: functional
Trypanosoma cruzi [3] = assay: Antitrypanosomal activity against epimastigote forms of Trypanosoma cruzi CL-B5 transfected with Escherichia coli beta-galactosidase gene LacZ at 1 ug/ml after 72 hrs by chlorophenol red-Beta-D-galactopyranoside-based assay; assay type: functional
J774 [4] = assay: Cytotoxicity against mouse J774 cells assessed as reduction in cell viability at 100 ug/ml after 24 hrs by resazurin-based colorimetric assay; conditions: j774, 24 h
J774 [5] = assay: Cytotoxicity against mouse J774 cells assessed as reduction in cell viability at 10 ug/ml after 24 hrs by resazurin-based colorimetric assay; conditions: j774, 24 h
J774 [6] = assay: Cytotoxicity against mouse J774 cells assessed as reduction in cell viability at 1 ug/ml after 24 hrs by resazurin-based colorimetric assay; conditions: j774, 24 h
Trypanosoma cruzi [7] = assay: Antitrypanosomal activity against amastigote forms of Trypanosoma cruzi CL-B5 expressing Escherichia coli LacZ gene infected in NCTC929 fibroblasts at 10 ug/ml after 7 days by chlorophenol red-Beta-D-galactopyranoside-based assay; assay type: functional
Trypanosoma cruzi [8] = assay: Antitrypanosomal activity against amastigote forms of Trypanosoma cruzi CL-B5 expressing Escherichia coli LacZ gene infected in NCTC929 fibroblasts at 100 ug/ml after 7 days by chlorophenol red-Beta-D-galactopyranoside-based assay; assay type: functional
Trypanosoma cruzi [9] = assay: Antitrypanosomal activity against amastigote forms of Trypanosoma cruzi CL-B5 expressing Escherichia coli LacZ gene infected in NCTC929 fibroblasts at 1 ug/ml after 7 days by chlorophenol red-Beta-D-galactopyranoside-based assay; assay type: functional

Compound | Activity (Trypanosoma cruzi [1]) | Activity (Trypanosoma cruzi [2]) | Activity (Trypanosoma cruzi [3]) | Activity (J774 [4]) | Activity (J774 [5]) | Activity (J774 [6]) | Activity (Trypanosoma cruzi [7]) | Activity (Trypanosoma cruzi [8]) | Activity (Trypanosoma cruzi [9])
CN1CC(=O)Nc2cc([N+](=O)[O-])ccc21 | 34.5% | 30.1% | 17.8% |  |  |  |  |  | 
O=C1C[N+]2(CCCCC2)c2ccc([N+](=O)[O-])cc2N1.[Cl-] | 26.2% | 34% | 27.2% |  |  |  |  |  | 
O=C1CN(CCCCCl)c2ccc([N+](=O)[O-])cc2N1 | 70.5% | 40.8% | 21% | 29% | 7.4% | 0% |  |  | 
O=C1CN(CCCCCCl)c2ccc([N+](=O)[O-])cc2N1 | 47.5% | 42.9% | 27.7% | 64.5% | 32.3% | 0% |  |  | 
O=C1CN(CCc2ccccc2CCl)c2ccc([N+](=O)[O-])cc2N1 | 100% | 96.2% | 43.8% | 76.6% | 75.8% | 4.7% |  |  | 
CCOCc1ccccc1CCN1CC(=O)Nc2cc([N+](=O)[O-])ccc21 | 100% | 74.4% | 28.1% | 95.9% | 48.5% |  |  |  | 
CN1C(=O)CN(CCCCCl)c2ccc([N+](=O)[O-])cc21 | 99% | 69.1% | 19.9% | 96.8% | 0% |  | 39.33% |  | 
CN1C(=O)CN(CCCCCCCl)c2ccc([N+](=O)[O-])cc21 | 100% | 51.2% | 25.7% | 80.7% | 63.9% |  |  |  | 
CN1C(=O)CN(CCc2ccccc2CCl)c2ccc([N+](=O)[O-])cc21 | 100% | 100% | 65.5% | 14.5% | 0% | 0% | 56.21% | 100% | 35.39%
CC1CS(=O)(=O)CCN1/N=C/c1ccc([N+](=O)[O-])o1 (stereo not drawn) [NIFURTIMOX] | 98.7% | 90% | 75.5% | 25.9% | 0.6% | 0% | 94.44% | 100% | 88.14%
